Patent US20180346518A1, “LYSOBACTIN FOR USE IN THE TREATMENT OF BOVINE MASTITIS” (BAYER ANIMAL HEALTH GMBH, priority 2015, published 2018)
≈ marks a conversion by molar mass, not a printed value. Numbered stars: 1 amine (or outer) side, 2 acyl side, 3 side chain; on linkers, the order of the positions; unused ones are H or OH. Bridge positions count the residues as written; N and C are the ends. Square brackets hold non-standard residues; d marks the D form. Peptide text beside a SMILES is read from it. Phe(3R-OH) = O=C([C@@H](N[*:1])[C@H](O[*:3])c1ccccc1)[*:2]; Asn(3S-OH) = NC(=O)[C@@H](O)[C@H](N)C(=O)O; Leu(3R-OH) = CC(C)[C@@H](O)[C@H](N)C(=O)O; aThr = C[C@H](O)[C@H](N)C(=O)O

Assays:
[1] = system: S. uberis; experiment: resistance development during serial passaging; format: cell-based, Streptococcus uberis; settings: constant sub-MIC exposure, 33 days
Description: (§1) The appearance of MIC changes during constant exposure of bacteria to sub-MIC concentrations of lysobactin was assessed by serial passaging experiments. On the first day the MICs of S. aureus and S. uberis were assessed by microbroth dilution MIC methodology as described by the Clinical and Laboratory Standards Institute (CLSI). Each day for the following 33 consecutive days, bacteria from the well containing the highest concentrations allowing full growth were collected and used to inoculate new 96-well plates and to assess the MIC during constant exposure to lysobactin. The MIC obtained on each day was plotted over time. Rifampicin, which is known to result in quick changes of the MIC, was used as positive control.

[2] = system: Streptococcus uberis; experiment: dairy cow udder infection model with S. uberis; format: in vivo, lactating dairy cows
Description: Seventy-two healthy lactating dairy cows were experimentally infected with the mastitis pathogen Streptococcus uberis on two udder quarters per cow. […] Treatments were randomly assigned to 41 (clinical) or 37 (microbiological) udder quarters in total, either 50 mg lysobactin per quarter (in 15/13 quarters), or 150 mg lysobactin (in 15/14 quarters), or Ubrolexin® (in 11/10 quarters) as positive control. The diseased quarters were treated with these intramammary formulations two times with an interval of 24 hours in between. Udders were clinically examined and milk samples were taken before treatment and several times after that until three weeks after the second administration. Milk was inspected visually for deviation in its consistency and samples were evaluated for presence of the challenge organism to confirm the diagnosis mastitis. Diseased udder quarters were considered microbiologically cured when Streptococcus uberis found in milk samples shortly before treatment could not be isolated from any milk sample taken within the time period between the seventh and the twenty-first day after the second treatment. Clinical cure was achieved when the local symptoms of mastitis completely disappeared or were at the most of very slight nature.

[3] = system: Staphylococcus aureus ATCC 29740; experiment: spontaneous resistance development; format: cell-based; settings: for obtained colonies: plated CFU 3.52 × 10^9
Description: (§2) The frequency of spontaneous resistance development was assessed by plating at least 1×10^9 colony forming units of the respective bacterial strain on agar plates containing lysobactin at either 4× or 8× the MIC and incubating the plates at 35+/−2° C. […] The resulting number is defined as the spontaneous resistance frequency, and is an indication for the likelihood of resistant isolates to appear during an infection.

[4] = system: Streptococcus uberis ATCC 27958; experiment: spontaneous resistance development; format: cell-based; settings: for obtained colonies: plated CFU 2.4 × 10^10
Description: as §2

[5] = in vivo; design: species or system Holstein cows; settings: female, Holstein, bovine, 150 mg
Description: The study was designed as a non-pivotal study suitable to investigate the milk pharmacokinetics of the active substance lysobactin after single intracisternal application to lactating dairy cows. The active substance was provided in a paraffine based service formulation suitable for intracisternal application containing 150 mg lysobactin B in 10 g oily suspension. The test item was administered as single intracisternal treatment at a dose rate of 150 mg lysobactin to a single hind quarter of four lactating dairy cows each. The dairy cows on study (Holstein cows) represented the target population in age, lactation number, lactation stage, milk yield and breed. The animals were stalled in a tie-barn and were fed with standard feed for dairy cows consisting of corn and grass silage and milk performance feed. Milking was twice daily at a 12 hour interval using a bucket-type milking device. Frequent milk sampling was performed from the treated and respective control quarters prior to (0 h) and over a period of 168 h after treatment (0.5, 1, 2, 4, 6, 8, 12, 24, 36, 48, 60, 72, 84, 96, 120, 144, and 168 h) by manual stripping of the respective udder quarters. Milk samples at routine milking times were gathered prior to milking. Concentrations of the active substance lysobactin in milk were analyzed by HPLC with detection by tandem mass spectrometry. The limit of quantitation was 0.05 mg/L. Pharmacokinetic evaluation of milk concentration data was based on non-compartmental methods and comprised PK-parameters to adequately describe the absorption, distribution and elimination profile of the active substance in milk.

[6] = system: S. aureus; experiment: resistance development during serial passaging; format: cell-based, Staphylococcus aureus; settings: constant sub-MIC exposure, 33 days
Description: as §1

[7] = system: Streptococcus agalactiae; experiment: microbroth dilution MIC (CLSI), MIC90; format: cell-based
Description: (§3) The in vitro antibacterial activity of lysobactin against common mastitis pathogens such as Staphylococcus aureus, Coagulase-negative staphylococci, Streptococcus uberis, Streptococcus dvsgalactiae, Streptococcus agalactiae, Trueperella pyogenes, Escherichia coli, or Klebsiella pneumoniae was assessed by microbroth dilution MIC methodology as described by the Clinical and Laboratory Standards Institute (CLSI) in order to obtain the Minimal Inhibitory Concentration (MIC), which is defined as the lowest concentration of a substance that prevents visible growth of a bacterium. The results expressed as MIC90 are summarized in the following table, where the MIC90 is defined as the concentration at which the growth of at least 90% of the strains of a given species is inhibited.

[8] = system: Staphylococcus aureus; experiment: microbroth dilution MIC (CLSI), MIC90; format: cell-based
Description: as §3

[9] = system: Streptococcus dysgalactiae; experiment: microbroth dilution MIC (CLSI), MIC90; format: cell-based
Description: as §3

[10] = system: Streptococcus uberis; experiment: microbroth dilution MIC (CLSI), MIC90; format: cell-based
Description: as §3

[11] = system: Klebsiella pneumoniae; experiment: microbroth dilution MIC (CLSI), MIC90; format: cell-based
Description: as §3

[12] = system: Escherichia coli; experiment: microbroth dilution MIC (CLSI), MIC90; format: cell-based
Description: as §3

[13] = system: Coagulase-negative staphylococci; experiment: microbroth dilution MIC (CLSI), MIC90; format: cell-based
Description: as §3

[14] = system: Trueperella pyogenes; experiment: microbroth dilution MIC (CLSI), MIC90; format: cell-based
Description: as §3

[15] = 150 mg per quarter, Day 7 after second treatment

SMILES: CC[C@H](C)[C@@H]1NC(=O)[C@@H](CCCNC(=N)N)NC(=O)[C@H](CC(C)C)NC(=O)[C@H]([C@H](O)C(C)C)NC(=O)[C@@H](NC(=O)[C@H](CC(C)C)NC(=O)[C@H](N)CC(C)C)[C@@H](c2ccccc2)OC(=O)[C@H](CO)NC(=O)[C@H]([C@H](O)C(N)=O)NC(=O)CNC(=O)[C@H]([C@H](C)O)NC1=O [lysobactin] (H-[dL]L[Phe(3R-OH)][Leu(3R-OH)]L[dR]I[aThr]G[Asn(3S-OH)]S; ester 3-C)
- MIC change during serial passaging [1]: remain constant
- microbiological cure rate ([2]; 50 mg per quarter, 2 treatments 24 h apart, Day 7 after second treatment): 84.6%
- local clinical cure rate ([2]; 50 mg per quarter, Day 7 after second treatment): 86.7%
- microbiological cure rate ([2]; 50 mg per quarter, Day 21 after second treatment): 92.31%
- local clinical cure rate [2, 15]: 86.7%
- microbiological cure rate [2, 15]: 71.4%
- microbiological cure rate ([2]; 150 mg per quarter, Day 21 after second treatment): 85.71%
- frequency of resistance ([3]; 24 h, 2 μg/ml (4x MIC)): <2.84 × 10^−10
- obtained colonies ([3]; 24 h, 2 μg/ml (4x MIC)): 0
- frequency of resistance ([3]; 24 h, 4 μg/ml (8x MIC)): <2.84 × 10^−10
- obtained colonies ([3]; 24 h, 4 μg/ml (8x MIC)): 0
- frequency of resistance ([3]; 48 h, 2 μg/ml (4x MIC)): <2.84 × 10^−10
- obtained colonies ([3]; 48 h, 2 μg/ml (4x MIC)): 0
- frequency of resistance ([3]; 48 h, 4 μg/ml (8x MIC)): <2.84 × 10^−10
- obtained colonies ([3]; 48 h, 4 μg/ml (8x MIC)): 0
- frequency of resistance ([4]; 24 h, 2 μg/ml (4x MIC)): <4.17 × 10^−11
- obtained colonies ([4]; 24 h, 2 μg/ml (4x MIC)): 0
- frequency of resistance ([4]; 24 h, 4 μg/ml (8x MIC)): <4.17 × 10^−11
- obtained colonies ([4]; 24 h, 4 μg/ml (8x MIC)): 0
- frequency of resistance ([4]; 48 h, 2 μg/ml (4x MIC)): <4.17 × 10^−11
- obtained colonies ([4]; 48 h, 2 μg/ml (4x MIC)): 0
- frequency of resistance ([4]; 48 h, 4 μg/ml (8x MIC)): <4.17 × 10^−11
- obtained colonies ([4]; 48 h, 4 μg/ml (8x MIC)): 0
- AUC(0-inf) [5]: 2320 µg·h/mL
- Cmax [5]: 342 µg/mL
- Tmax [5]: 4 h
- half-life [5]: 11.6 h
- AUC(0-t) ([5]; AUC0-12 h): 1870 µg·h/mL
- AUC(0-t) ([5]; AUC0-24 h): 2210 µg·h/mL
- MIC change during serial passaging [6]: remain constant
- MIC90 [7]: 0.25 µg/mL (≈ 0.196 µM)
- MIC90 [8]: 0.5 µg/mL (≈ 0.392 µM)
- MIC90 [9]: 0.25 µg/mL (≈ 0.196 µM)
- MIC90 [10]: 0.125 µg/mL (≈ 0.0979 µM)
- MIC90 [11]: > 16 µg/mL
- MIC90 [12]: > 16 µg/mL
- MIC90 [13]: 0.5 µg/mL (≈ 0.392 µM)
- MIC90 [14]: 0.5 µg/mL (≈ 0.392 µM)
